The record followed here is ChEMBL document CHEMBL4808176, “Optimization of Truncated Glucagon Peptides to Achieve Selective, High Potency, Full Antagonists” (J Med Chem, 2021).

In data set [1] the target is Glucagon receptor (Mus musculus) (UniProt Q61606). Briefly: Antagonist activity at mouse GCGR expressed in CHO-K1 cells assessed as inhibition of glucogon-induced cAMP production relative to control. Format: functional, cell-based. Conditions: filed as antagonist, concentration not given here. (Cyclic AMP is a second messenger, typically raised through Gs and lowered through Gi signalling.)
Sequence of Glucagon receptor (Mus musculus) (Q61606 whole entry): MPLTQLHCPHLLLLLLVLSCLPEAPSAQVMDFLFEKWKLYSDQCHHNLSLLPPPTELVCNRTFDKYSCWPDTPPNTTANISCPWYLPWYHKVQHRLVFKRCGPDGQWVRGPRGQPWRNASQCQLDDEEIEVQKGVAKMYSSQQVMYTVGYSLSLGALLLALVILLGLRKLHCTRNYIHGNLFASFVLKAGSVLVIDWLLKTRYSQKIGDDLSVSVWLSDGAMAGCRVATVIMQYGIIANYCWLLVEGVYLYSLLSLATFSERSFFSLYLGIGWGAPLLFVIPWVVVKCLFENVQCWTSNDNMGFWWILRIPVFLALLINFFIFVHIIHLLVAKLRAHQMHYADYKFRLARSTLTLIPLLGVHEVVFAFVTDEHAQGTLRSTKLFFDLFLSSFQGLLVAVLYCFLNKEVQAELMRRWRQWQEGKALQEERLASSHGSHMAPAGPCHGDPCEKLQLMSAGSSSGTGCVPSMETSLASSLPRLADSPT

The target of data set [2] is T1, Gastric inhibitory polypeptide receptor (Homo sapiens, UniProt P48546).
T1 sequence (P48546 whole entry): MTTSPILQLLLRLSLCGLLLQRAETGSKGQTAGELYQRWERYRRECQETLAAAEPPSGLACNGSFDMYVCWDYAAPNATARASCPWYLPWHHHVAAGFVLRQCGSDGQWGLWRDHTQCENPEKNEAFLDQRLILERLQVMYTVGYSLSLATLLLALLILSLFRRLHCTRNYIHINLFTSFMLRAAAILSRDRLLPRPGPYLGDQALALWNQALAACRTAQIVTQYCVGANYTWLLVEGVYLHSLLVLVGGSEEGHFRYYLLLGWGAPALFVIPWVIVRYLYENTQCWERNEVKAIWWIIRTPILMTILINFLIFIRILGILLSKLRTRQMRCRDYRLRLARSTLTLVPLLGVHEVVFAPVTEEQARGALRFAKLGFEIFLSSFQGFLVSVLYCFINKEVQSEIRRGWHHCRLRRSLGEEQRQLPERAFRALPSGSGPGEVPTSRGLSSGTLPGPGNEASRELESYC
Briefly: Antagonist activity at human GIPR expressed in HEK293 cells assessed as inhibition of GIP-induced cAMP production. The format is functional, cell-based.

Data set [3] deals with Glucagon receptor (Mus musculus, UniProt Q61606). Put plainly: Antagonist activity at mouse GCGR expressed in CHO-K1 cells assessed as inhibition of glucogon-induced cAMP production. Format: functional, cell-based.
Sequence of Glucagon receptor (Mus musculus, UniProt Q61606) (Q61606 whole entry): as the sequence (Q61606 whole entry) above
The nature of data set [4]: Half life in C57BL/6 mouse at 1500 nmol/kg, sc measured upto 240 mins by LC-MS analysis. The note with it: in vivo. The format is ADME, organism-based.
Data set [5] is described as follows: Aqueous solubility of the compound at pH 8 by LC-MS analysis. Format: physicochemical. Conditions: buffer.
The test system of data set [6] is Mus musculus. Briefly: Inhibition of IUB288-induced glucose elevation in C57BL/6 mouse at 1500 nmol/kg, sc pretreated for 15 mins followed by IUB288 stimulation and measured upto 120 mins. The format is functional, organism-based. The note with it: time 135.0 min.
The target in data set [7] is Glucagon-like peptide 1 receptor (Homo sapiens, UniProt P43220). Put plainly: Antagonist activity at human GLP-1R expressed in HEK293 cells assessed as inhibition of GLP1-induced cAMP production. Format: functional, cell-based.
Sequence of Glucagon-like peptide 1 receptor (Homo sapiens, UniProt P43220) (P43220 whole entry): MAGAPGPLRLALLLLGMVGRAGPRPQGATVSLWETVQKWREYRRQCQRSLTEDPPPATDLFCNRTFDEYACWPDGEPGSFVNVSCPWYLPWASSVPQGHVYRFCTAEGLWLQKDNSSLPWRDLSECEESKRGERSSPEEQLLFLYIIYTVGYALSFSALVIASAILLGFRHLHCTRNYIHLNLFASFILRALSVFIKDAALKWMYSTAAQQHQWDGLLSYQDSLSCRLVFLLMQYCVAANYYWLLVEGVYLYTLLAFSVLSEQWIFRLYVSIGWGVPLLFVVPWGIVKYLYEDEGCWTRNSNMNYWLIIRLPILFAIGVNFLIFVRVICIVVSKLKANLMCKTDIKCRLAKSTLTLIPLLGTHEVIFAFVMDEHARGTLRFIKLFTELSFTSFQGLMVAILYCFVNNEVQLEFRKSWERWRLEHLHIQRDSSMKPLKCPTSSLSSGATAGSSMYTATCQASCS
A short description of data set [8]: Cmax in C57BL/6 mouse at 1500 nmol/kg, sc measured upto 240 mins by LC-MS analysis. Further details: route subcutaneous, dose 1500 nmol/kg, time <=240. Conditions: in vivo. Format: ADME, organism-based.
In data set [9] the target is T2, Glucagon receptor (Homo sapiens, UniProt P47871). Put plainly: Antagonist activity at human GCGR expressed in HEK293 cells assessed as inhibition of glucogon-induced cAMP production relative to control. Format: functional, cell-based. Conditions: filed as antagonist, concentration not given here.
T2 sequence (P47871 whole entry): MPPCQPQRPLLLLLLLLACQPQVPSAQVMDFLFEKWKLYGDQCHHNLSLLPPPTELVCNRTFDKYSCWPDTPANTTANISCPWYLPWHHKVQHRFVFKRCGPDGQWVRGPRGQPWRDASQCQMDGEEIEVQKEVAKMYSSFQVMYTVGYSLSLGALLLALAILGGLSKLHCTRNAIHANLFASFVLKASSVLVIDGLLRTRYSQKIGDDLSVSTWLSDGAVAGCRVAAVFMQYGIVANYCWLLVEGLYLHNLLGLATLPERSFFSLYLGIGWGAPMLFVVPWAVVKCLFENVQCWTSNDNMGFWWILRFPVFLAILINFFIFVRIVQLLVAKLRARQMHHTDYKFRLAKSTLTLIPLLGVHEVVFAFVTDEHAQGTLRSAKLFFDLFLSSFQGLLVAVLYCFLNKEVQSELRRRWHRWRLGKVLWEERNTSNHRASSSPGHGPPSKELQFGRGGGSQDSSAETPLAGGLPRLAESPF
Data set [10] concerns the target T3, Gastric inhibitory polypeptide receptor (Mus musculus, UniProt Q0P543).
T3 sequence (Q0P543 whole entry): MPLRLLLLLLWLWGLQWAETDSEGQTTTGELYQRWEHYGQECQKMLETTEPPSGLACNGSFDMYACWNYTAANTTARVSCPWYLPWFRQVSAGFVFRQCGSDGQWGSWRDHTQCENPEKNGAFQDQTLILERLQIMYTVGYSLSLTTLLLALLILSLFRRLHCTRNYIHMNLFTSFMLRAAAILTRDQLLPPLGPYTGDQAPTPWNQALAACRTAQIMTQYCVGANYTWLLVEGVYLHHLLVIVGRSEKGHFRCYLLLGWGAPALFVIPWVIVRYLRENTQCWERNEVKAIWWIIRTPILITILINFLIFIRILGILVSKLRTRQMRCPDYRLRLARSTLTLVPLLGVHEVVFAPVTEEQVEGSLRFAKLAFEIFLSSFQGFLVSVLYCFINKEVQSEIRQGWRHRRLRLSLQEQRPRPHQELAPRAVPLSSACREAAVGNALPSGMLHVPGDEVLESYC
Briefly: Antagonist activity at mouse GIPR expressed in CHO-K1 cells assessed as inhibition of GIP-induced cAMP production. The format is cell-based.

Data set [11] can be described thus: Chemical stability of compound in PBS buffer incubated for 5 to 7 days by LC-MS analysis. The format is physicochemical. Conditions: time 5-7 day.
Data set [12] is described as follows: AUC in C57BL/6 mouse at 1500 nmol/kg, sc measured upto 240 mins by LC-MS analysis. The format is ADME, organism-based. Further details: route subcutaneous, dose 1500 nmol/kg, time <=240. The note with it: in vivo.
Data set [13] in a line: Toxicity in C57BL/6 mouse assessed as adverse local and systemic responses at 1500 nmol/kg, sc. Conditions: in vivo.
The target of data set [14] is T4, Glucagon-like peptide 1 receptor (Mus musculus) (UniProt O35659).
T4 sequence (whole entry): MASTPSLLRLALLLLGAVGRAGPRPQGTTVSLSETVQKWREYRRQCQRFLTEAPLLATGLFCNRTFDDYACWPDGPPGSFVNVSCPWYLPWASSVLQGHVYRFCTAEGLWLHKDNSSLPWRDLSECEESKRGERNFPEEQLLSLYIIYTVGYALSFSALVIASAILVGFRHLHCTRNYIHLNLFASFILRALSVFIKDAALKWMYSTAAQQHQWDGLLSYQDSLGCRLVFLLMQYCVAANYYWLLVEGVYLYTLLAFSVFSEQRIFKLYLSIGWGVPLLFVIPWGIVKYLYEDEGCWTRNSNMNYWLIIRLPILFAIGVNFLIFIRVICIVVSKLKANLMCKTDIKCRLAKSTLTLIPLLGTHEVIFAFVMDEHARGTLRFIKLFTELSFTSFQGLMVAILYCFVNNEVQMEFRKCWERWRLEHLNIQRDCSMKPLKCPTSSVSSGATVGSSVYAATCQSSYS
Put plainly: Antagonist activity at mouse GLP1R expressed in CHO-K1 cells assessed as inhibition of GLP1-induced cAMP production relative to control. Format: functional, cell-based. The note with it: concentration not given here.

In data set [15] the target is T5, Gastric inhibitory polypeptide receptor (Mus musculus) (UniProt Q0P543).
T5 sequence (whole entry): T3 sequence (Q0P543 whole entry)
Briefly: Antagonist activity at mouse GIPR expressed in CHO-K1 cells assessed as inhibition of GIP-induced cAMP production relative to control. Format: cell-based. Conditions: concentration not given here.

The target of data set [16] is T6, Glucagon-like peptide 1 receptor (Mus musculus, UniProt O35659).
T6 sequence (O35659 whole entry): T4 sequence (whole entry)
Briefly: Antagonist activity at mouse GLP1R expressed in CHO-K1 cells assessed as inhibition of GLP1-induced cAMP production. Format: functional, cell-based.

Data set [17] deals with T7, Gastric inhibitory polypeptide receptor (Homo sapiens) (UniProt P48546).
T7 sequence (whole entry): T1 sequence (P48546 whole entry)
Put plainly: Antagonist activity at human GIPR expressed in HEK293 cells assessed as inhibition of GIP-induced cAMP production relative to control. Conditions: concentration not given here. The format is functional, cell-based.

The target in data set [18] is T2, Glucagon receptor. Put plainly: Antagonist activity at human GCGR expressed in HEK293 cells assessed as inhibition of glucogon-induced cAMP production. The format is functional, cell-based.
Data set [19] relates to Mus musculus. Put plainly: Inhibition of IUB288-induced glucose elevation in C57BL/6 mouse at 1500 nmol/kg, sc pretreated for 4 to 8 hrs followed by IUB288 stimulation and measured upto 4 hrs. The note with it: time 8-12 hrs. Format: functional, organism-based.
The nature of data set [20]: Half life in C57BL/6 mouse at 1500 nmol/kg, sc measured upto 48 hrs by LC-MS analysis. Format: ADME, organism-based. The note with it: in vivo.
Data set [21] is described as follows: Cmax in C57BL/6 mouse at 1500 nmol/kg, sc measured upto 48 hrs by LC-MS analysis. The format is ADME, organism-based. Further details: route subcutaneous, dose 1500 nmol/kg, time <=48. Conditions: in vivo.
Data set [22] is described as follows: AUC in C57BL/6 mouse at 1500 nmol/kg, sc measured upto 48 hrs by LC-MS analysis. Format: ADME, organism-based. Also on record: route subcutaneous, dose 1500 nmol/kg, time <=48. Conditions: in vivo.
In data set [23] the test system is Mus musculus. Briefly: Inhibition of IUB288-induced glucose elevation in C57BL/6 mouse at 1500 nmol/kg, sc pretreated for 24 hrs followed by IUB288 stimulation and measured upto 4 hrs. Format: functional, organism-based. Conditions: time 28.0 hrs.

The source made the active and inactive calls. Peptide text beside a SMILES is read from it.

As usually defined, the inhibition is how much of the control response was suppressed. Usually IC50 stands for the concentration needed to halve the response being measured. In general, half-life refers to the time needed for the level to fall by half in the phase considered. Lower therefore signals fast loss. In general, solubility refers to how much of the substance goes into solution per volume. Broadly, the Cmax is the maximum level reached in the sampled fluid or tissue. One may read the AUC as concentration integrated over time. A higher AUC goes with more exposure. On to `CSCC[C@H](NC(=O)[C@H](CC(C)C)NC(=O)[C@H](Cc1c[nH]c2ccccc12)NC(=O)[C@H](CCC(N)=O)NC(=O)[C@@H](NC(=O)[C@H](Cc1ccccc1)NC(=O)[C@H](CC(=O)O)NC(=O)[C@H](CCC(N)=O)NC(=O)[C@H](C)NC(=O)[C@H](CCCNC(=N)N)NC(=O)[C@H](CCCNC(=N)N)NC(=O)[C@H](CO)NC(=O)[C@H](CC(=O)O)NC(=O)[C@H](CC(C)C)NC(=O)[C@H](Cc1ccc(O)cc1)NC(=O)[C@H](CCCCN)NC(=O)[C@H](CO)NC(=O)[C@H](Cc1ccc(O)cc1)NC(=O)[C@H](CC(=O)O)NC(=O)[C@H](CO)NC(=O)[C@@H](NC(=O)[C@@H](O)Cc1ccccc1)[C@@H](C)O)C(C)C)C(=O)N[C@@H](CC(=O)O)C(=O)N[C@H](C(N)=O)[C@@H](C)O`, for which the inhibition in data set [1] came out at 92%; at Glucagon receptor [9] it was 99%; in [14], 1%; in data set [15], 10%; in [17], 20%. The IC50 in data set [2] was > 1000 nM; on Glucagon receptor [3], 23.1 nM; in data set [7] it was > 1000 nM; in data set [10], > 1000 nM; in data set [16], > 1000 nM; on Glucagon receptor [18] it was 12.1 nM. In data set [4], this compound showed a half-life of 0.512 h. Further, the solubility in data set [5] is > 500 µM. The inhibition entry in the data set with Mus musculus [6] was “Active”. In data set [8], this compound gave a Cmax of 261 nM. In addition, in data set [11], the Stabilty entry was “Stable”. For the same compound, the AUC at 4 h in data set [12] worked out at 0.209 µM·h. Besides, the Activity entry in data set [13] is recorded as “Non-Toxic”.
Regarding `CCCCCCCCCCCCCCCC(=O)N[C@@H](CCC(=O)N[C@@H](CCC(=O)NCCCC[C@H](NC(=O)[C@H](CC(=O)O)NC(=O)[C@H](CO)NC(=O)[C@@H](NC(=O)[C@@H](O)Cc1ccccc1)[C@@H](C)O)C(=O)N[C@@H](CO)C(=O)N[C@@H](CCCCN)C(=O)N[C@@H](Cc1ccc(O)cc1)C(=O)N[C@@H](CC(C)C)C(=O)N[C@@H](CC(=O)O)C(=O)N[C@@H](CO)C(=O)N[C@@H](CCCNC(=N)N)C(=O)N[C@@H](CCCNC(=N)N)C(=O)N[C@@H](C)C(=O)N[C@@H](CCC(N)=O)C(=O)N[C@@H](CC(=O)O)C(=O)N[C@@H](Cc1ccccc1)C(=O)N[C@H](C(=O)N[C@@H](CCC(N)=O)C(=O)N[C@@H](Cc1c[nH]c2ccccc12)C(=O)N[C@@H](CC(C)C)C(=O)N[C@@H](CCSC)C(=O)N[C@@H](CC(=O)O)C(=O)N[C@H](C(N)=O)[C@@H](C)O)C(C)C)C(=O)O)C(=O)O` (HELM PEPTIDE1{[O=C([C@@H](O)Cc1ccccc1)[*:2]].T.S.D.K.S.K.Y.L.D.S.R.R.A.Q.D.F.V.Q.W.L.M.D.T.[am]}|PEPTIDE2{[CCCCCCCCCCCCCCCC(=O)[*:2]].[gGlu].[gGlu]}$PEPTIDE1,PEPTIDE2,5:R3-3:R2$$$V2.0), the inhibition was found to be 92% in [1]; 100% on Glucagon receptor [9]; 99% in [14] (filed as antagonist); 97% in data set [15] (filed as antagonist); 96% in data set [17] (filed as antagonist). Moreover, the IC50 in data set [2] came out at 60 nM; at Glucagon receptor [3], 0.53 nM; in [7] it was 99 nM; in data set [10], 125 nM; in [16], 131 nM; at Glucagon receptor [18] it was 0.43 nM. The inhibition entry in the data set with Mus musculus [19] and with Mus musculus [23] was “Active” throughout. Further, the Stabilty result in data set [11] was “Stable”. Also, the Activity entry in data set [13] is recorded as “Non-Toxic”. The half-life in data set [20] is 6.73 h. In [21], this compound returned a Cmax of 3310 nM. Besides, the AUC at 48 h in data set [22] is 37.4 µM·h.
